Assay results published in publication PMC6910994, “Elucidating molecular interactions of L-nucleotides with HIV-1 reverse transcriptase and mechanism of M184V-caused drug resistance” (Communications Biology, 2019).

Key:
M184V HIV-1 RT [1] = target: T1, M184V HIV-1 RT (Human immunodeficiency virus type 1 group M subtype B, UniProt P03366, M783V/Q857C); assay: Pre-steady-state single-turnover kinetics of nucleotide incorporation by M184V HIV-1 RT; type: biochemical
T1 construct: HIV-1 RT p66 and p51 subunits were expressed and purified as described previously; made in house
Protocol: (§1) Previous kinetic studies[16],[18],[20],[22]–[26] have aimed at understanding the efficiency of incorporation for (−)-FTC-TP or (−)-3TC-TP, how they compete against dCTP, and the effect of resistance mutations, such as M184V. As in our previous work[20],[25],[26], single-turnover kinetic assays were performed by rapidly mixing a pre-incubating solution of 120 nM HIV-1 RT (WT or M184V) and 30 nM 5ʹ-[^32P]-labeled 18/26-mer dsDNA substrate (Methods) with varying concentrations of dCTP, or an active metabolite of NRTIs for different times, before being quenched by 0.37 M EDTA. Representative kinetic plots displaying M184V-catalyzed incorporation of (−)-FTC-TP onto 18/26-mer dsDNA substrate are shown in Fig. 2. […] We determined the pre-steady-state kinetic parameters of maximal nucleotide incorporation rate constants (kp) and apparent equilibrium dissociation constants (Kd) for dCTP, (+)-FTC-TP, (−)-FTC-TP, (+)-3TC-TP and (−)-3TC-TP with WT or M184V HIV-1 RT (Table 1). […] The resulting selectivity factors ((kp/Kd)dCTP/(kp/Kd)NRTI) were determined to be only 1.9 and 7.0-fold higher for dCTP over (−)-FTC-TP and (−)-3TC-TP, respectively.
(§2) Fig. 2 Determination of kinetic parameters for (−)-FTC-TP incorporation onto 18/26-mer dsDNA catalyzed by the M184V mutant of HIV-1 RT. a A pre-incubated solution of 120 nM M184V and 30 nM 5′-[^32P]-labeled 18/26-mer was mixed with increasing concentrations of (−)-FTC-TP (3.75 µM, ●; 7.5 µM, [drawing 1]; 15 µM, [drawing 2]; 30 µM, x; 60 µM, [drawing 3]; 120 µM, [drawing 4]; 240 µM, [drawing 5]; 480 µM, [drawing 6] ) for various times at 37 °C before being quenched with 0.37 M EDTA.
(§3) HIV-1 RT (120 nM) and 5ʹ-[^32P]-labeled 18/26-mer DNA (30 nM; DNA sequence shown above the 18mer primer without chemical modification) were pre-incubated at 37 °C for 5 min in reaction buffer containing 50 mM Tris-HCl (pH, 7.9), 10 mM MgCl2, 50 mM NaCl, 0.1 mM EDTA, 10% glycerol, 5 mM DTT, and 0.1 µg/mL BSA (all concentrations are final upon mixing). The reactions were initiated by rapidly mixing with varying concentrations of dCTP, FTC-TP, or 3TC-TP on a rapid chemical-quench flow apparatus (KinTek) and quenched with 0.37 M EDTA at various times. The DNA products were analyzed by sequencing gel electrophoresis (17% polyacrylamide, 8 M Urea), and quantitated using a Typhoon Trio (GE Healthcare) and ImageQuant software (Molecular Dynamics). The kinetic data were fit using non-linear regression software KaleidaGraph (Synergy) to a single-exponential equation Product=A1−exp−kobst, where A and kobs represent the reaction amplitude and observed nucleotide incorporation rate constant, respectively. Values for kobs were then plotted against the respective dNTP (or an NRTI triphosphate) concentration and each plot was fit to a hyperbolic equation kobs=kpdNTP∕Kd+dNTP, where kp is the maximal nucleotide incorporation rate constant and Kd is the apparent equilibrium dissociation constant for the binding of dNTP (or an NRTI triphosphate) to the RT and DNA complex. Each set of kinetic parameters (kp, Kd, kp/Kd) are derived from 8 individual experiments where the concentration of nucleotide is variable (i.e. 8 distinct concentrations of dCTP or NRTI). All reported error values are derived from data fitting using non-linear regression software KaleidaGraph (Synergy).

M184V HIV-1 RT [2] = assay: as above; type: biochemical; details: M184V vs WT RT
Protocol: as §1, §2, §3

WT HIV-1 RT = target: T2, WT HIV-1 RT (Human immunodeficiency virus type 1 group M subtype B, UniProt P03366, Q857C); assay: Pre-steady-state single-turnover kinetics of nucleotide incorporation by WT HIV-1 RT; type: biochemical; details: for Kd: 18/26-mer dsDNA, 37 °C, read-out: Kd (apparent equilibrium dissociation constant); for Tighter binding (Kd) compared to natural dCTP: Kd dCTP / Kd analog
T2 construct: HIV-1 RT p66 and p51 subunits were expressed and purified as described previously; made in house
Protocol: as §1, §3

M184V mutant RT = details: up; cited from earlier work
HIV [3] = details: clinical trials, monotherapy; cited from earlier work
HIV-1 M184V = details: cited from earlier work; for Resistance conferred by M184V as compared to WT: single amino acid residue mutation M184V
HIV virus = details: initial cell-based screening; cited from earlier work
HIV [4] = tested on: HIV; parameters: method as in PMID 19225726; details: reportedly; cited from earlier work

Nc1ccn([C@@H]2CS[C@H](COP(=O)(O)OP(=O)(O)OP(=O)(O)O)O2)c(=O)n1 [(−)-3TC-TP]
Kd (M184V HIV-1 RT [1]): 53 ± 4 µM
Reduction of binding affinity (higher Kd) of M184V compared to WT (M184V HIV-1 RT [2]): 212 fold
Kd (WT HIV-1 RT; WT HIV-1 RT): 0.25 ± 0.01 µM
Higher Kd value (lower binding affinity) over (−)-FTC-TP (WT HIV-1 RT; WT RT): 2.5 fold
Tighter binding (Kd) compared to natural dCTP (WT HIV-1 RT; WT RT): 25 fold

Nc1nc(=O)n([C@H]2CS[C@@H](CO)O2)cc1F [FTC, 2ʹ,3ʹ-dideoxy-5-fluoro-3ʹ-thiacytidine]
Reduction in potency by M184V in enzyme-based assays (M184V mutant RT): > 300 fold
Reduction in viral HIV RNA (HIV [3]): 1.7 log
Reduction in potency by M184V in cell-based assays (HIV-1 M184V): > 500 fold
Resistance conferred by M184V as compared to WT (HIV-1 M184V): > 500 fold
Cytotoxicity versus corresponding (+)-stereoisomer (HIV virus): less cytotoxic
Potency against the HIV virus versus corresponding (+)-stereoisomer (HIV virus): more potent

Nc1nc(=O)n([C@H]2CS[C@@H](COP(=O)(O)OP(=O)(O)OP(=O)(O)O)O2)cc1F [(+)-FTC-TP]
Kd (M184V HIV-1 RT [1]): 1.8 ± 0.3 µM
Kd (WT HIV-1 RT; WT HIV-1 RT): 0.19 ± 0.02 µM

Cc1cn([C@@H]2C[C@@H](O)[C@H](CO)O2)c(=O)[nH]c1=O [Telbivudine]
Inhibition of HIV (HIV [4]): does not inhibit HIV

Nc1ccn([C@H]2C[C@H](O)[C@@H](COP(=O)(O)OP(=O)(O)OP(=O)(O)O)O2)c(=O)n1 [dCTP, deoxycytidine triphosphate]
Kd (M184V HIV-1 RT [1]): 8.9 ± 1 µM
Kd (WT HIV-1 RT; WT HIV-1 RT): 6.3 ± 0.2 µM

Nc1ccn([C@H]2CS[C@@H](CO)O2)c(=O)n1 [3TC, 2ʹ,3ʹ-dideoxy-3ʹ-thiacytidine]
Reduction in potency by M184V in cell-based assays (HIV-1 M184V): > 500 fold
Resistance conferred by M184V as compared to WT (HIV-1 M184V): > 500 fold

Nc1nc(=O)n([C@@H]2CS[C@H](COP(=O)(O)OP(=O)(O)OP(=O)(O)O)O2)cc1F [(−)-FTC-TP]
Kd (M184V HIV-1 RT [1]): 28 ± 2 µM
Reduction of binding affinity (higher Kd) of M184V compared to WT (M184V HIV-1 RT [2]): 280 fold
Binding affinity increase (tighter binding) over (−)-3TC-TP (WT HIV-1 RT; WT HIV-1 RT): 2.5 fold
Higher incorporation efficiency (kp/Kd) than (−)-3TC-TP (WT HIV-1 RT; WT HIV-1 RT): 3.7 fold
Kd (WT HIV-1 RT; WT HIV-1 RT): 0.1 ± 0.01 µM
Tighter binding (Kd) compared to natural dCTP (WT HIV-1 RT; WT RT): 63 fold

Nc1ccn([C@H]2CS[C@@H](COP(=O)(O)OP(=O)(O)OP(=O)(O)O)O2)c(=O)n1 [(+)-3TC-TP]
Kd (M184V HIV-1 RT [1]): 5.4 ± 1.2 µM
Kd (WT HIV-1 RT; WT HIV-1 RT): 0.202 ± 0.004 µM
